Assay results from article PMC9241943, “LcCCL28-25, Derived from Piscine Chemokine, Exhibits Antimicrobial Activity against Gram-Negative and Gram-Positive Bacteria In Vitro and In Vivo” (Microbiology Spectrum, 2022).
≈ marks a conversion by molar mass, not a printed value. Residues, ends and D or L forms follow the SMILES beside them.

Columns and labels:
[1] = test system: Staphylococcus aureus USA300; settings: S. aureus USA300
Method: (§1) The MIC assays were performed as previously described ([43]). Briefly, peptides were plated in a 2-fold dilution series (50 μL/well) of Mueller-Hinton broth (MHB) in Costar 96-well cell culture plates (Corning, NY, USA). Three repeats were set for each concentration. E. coli ATCC 25922, A. hydrophila ATCC 7966, P. aeruginosa PAO1, P. aeruginosa FRD1, S. aureus ATCC 25923, S. agalactiae ATCC 13813, S. pneumoniae ATCC 49619, methicillin-resistant S. aureus ATCC 43300, and methicillin-resistant S. aureus USA300 were cultured in Luria-Bertani (LB) medium, while K. pneumoniae CMCC46117 was cultured in tryptic soy broth (TSB) medium. Incubation was done at 37°C and 150 × g for 12 h. Bacteria were transferred to fresh MHB at a ratio of 1% (vol/vol) and incubated to reach a logarithmic growth phase. Then, 50 μL of a bacterial suspension at 4 × 10^6 CFU/mL was added to each well. After incubation at 37°C for 22 ± 2 h, turbidity was measured using an EnSpire multimode plate reader (PerkinElmer, Singapore) at 595 nm.

P. aeruginosa FRD1 = format: cell-based, Pseudomonas aeruginosa; settings: FRD1, 2 h
Method: as §1, with “After incubation at 37°C for 22 ± 2 h, turbidity was measured using an EnSpire multimode plate reader (PerkinElmer, Singapore) at 595 nm.” left out

[2] = test system: Methicillin-resistant S. aureus USA300; format: cell-based, Staphylococcus aureus; settings: USA300, 2 h
Method: as §1, with “After incubation at 37°C for 22 ± 2 h, turbidity was measured using an EnSpire multimode plate reader (PerkinElmer, Singapore) at 595 nm.” left out

[3] = test system: Methicillin-resistant S. aureus ATCC 43300; format: cell-based, Staphylococcus aureus; settings: ATCC 43300, 2 h
Method: as §1, with “After incubation at 37°C for 22 ± 2 h, turbidity was measured using an EnSpire multimode plate reader (PerkinElmer, Singapore) at 595 nm.” left out

E. coli ATCC 25922 = experiment: SYTOX green membrane permeability assay; format: cell-based, Escherichia coli; settings: E. coli ATCC 25922, 5 μM SYTOX green, read every 1 min
Method: The SYTOX green staining assay was performed to assess peptide-associated membrane damage ([47], [52]). E. coli ATCC 25922 and S. aureus ATCC 25923 cells in the mid-logarithmic phase were collected, washed thrice, and resuspended (5 × 10^7 CFU/mL) in buffer B (10 mM Tris-HCl, pH 7.4, at 25°C). The bacterial suspensions were mixed with 5 μM SYTOX green and incubated for 15 min at room temperature in the dark. Then, the mixtures were added to black, clear-bottom 96-well plates at a density of 100 μL/well. After peptide addition, SYTOX green uptake was monitored using an EnSpire multimode plate reader (PerkinElmer, Singapore) with an excitation wavelength of 485 nm and an emission wavelength of 520 nm. Each measurement interval was 1 min, totaling 30 to 60 times. Melittin was used as the positive control, while bovine serum albumin (BSA) was the negative control.

[4] = test system: Klebsiella pneumoniae CMCC46117; format: cell-based; settings: CMCC46117, 2 h
Method: as §1, with “After incubation at 37°C for 22 ± 2 h, turbidity was measured using an EnSpire multimode plate reader (PerkinElmer, Singapore) at 595 nm.” left out

[5] = test system: Aeromonas hydrophila ATCC 7966; format: cell-based; settings: ATCC 7966, 2 h
Method: as §1, with “After incubation at 37°C for 22 ± 2 h, turbidity was measured using an EnSpire multimode plate reader (PerkinElmer, Singapore) at 595 nm.” left out

[6] = test system: Streptococcus agalactiae ATCC 13813; format: cell-based; settings: ATCC 13813, 2 h
Method: as §1, with “After incubation at 37°C for 22 ± 2 h, turbidity was measured using an EnSpire multimode plate reader (PerkinElmer, Singapore) at 595 nm.” left out

[7] = test system: Pseudomonas aeruginosa PAO1; format: cell-based; settings: PAO1, 2 h
Method: as §1, with “After incubation at 37°C for 22 ± 2 h, turbidity was measured using an EnSpire multimode plate reader (PerkinElmer, Singapore) at 595 nm.” left out

[8] = test system: Escherichia coli ATCC 25922; format: cell-based; settings: ATCC 25922, 2 h
Method: as §1, with “After incubation at 37°C for 22 ± 2 h, turbidity was measured using an EnSpire multimode plate reader (PerkinElmer, Singapore) at 595 nm.” left out

[9] = test system: Staphylococcus aureus ATCC 25923; format: cell-based; settings: ATCC 25923, 2 h
Method: as §1, with “After incubation at 37°C for 22 ± 2 h, turbidity was measured using an EnSpire multimode plate reader (PerkinElmer, Singapore) at 595 nm.” left out

[10] = test system: Streptococcus pneumoniae ATCC 49619; format: cell-based; settings: ATCC 49619, 2 h
Method: as §1, with “After incubation at 37°C for 22 ± 2 h, turbidity was measured using an EnSpire multimode plate reader (PerkinElmer, Singapore) at 595 nm.” left out

Compound	MIC (P. aeruginosa FRD1) [µg/mL]	MIC [2] [µg/mL]	MIC [3] [µg/mL]	MIC [4] [µg/mL]	MIC [5] [µg/mL]	MIC [6] [µg/mL]	MIC [7] [µg/mL]	MIC [8] [µg/mL]	MIC [9] [µg/mL]	MIC [10] [µg/mL]	MIC in 6 μM NH4Cl ([1]; 6 μM NH4Cl) [µg/mL]	MIC in 1 mM MgCl2 ([1]; 1 mM MgCl2) [µg/mL]	MIC in 2.5 mM CaCl2 ([1]; 2.5 mM CaCl2) [µg/mL]	MIC in 4.5 mM KCl ([1]; 4.5 mM KCl) [µg/mL]	MIC in 150 mM NaCl ([1]; 150 mM NaCl) [µg/mL]	MIC in MS at concn 10% ([1]; 10% mouse serum) [µg/mL]	MIC in MS at concn 20% ([1]; 20% mouse serum) [µg/mL]	MIC in MS at concn 40% ([1]; 40% mouse serum) [µg/mL]	MIC in Control ([1]; control, bacteria treated with peptide only) [µg/mL]	SYTOX green fluorescence intensity (E. coli ATCC 25922)
CC[C@H](C)[C@H](NC(=O)CN)C(=O)NCC(=O)N[C@@H](C)C(=O)N[C@H](C(=O)N[C@@H](CC(C)C)C(=O)N[C@@H](CCCCN)C(=O)N[C@H](C(=O)N[C@@H](CC(C)C)C(=O)N[C@H](C(=O)N[C@H](C(=O)NCC(=O)N[C@@H](CC(C)C)C(=O)N1CCC[C@H]1C(=O)N[C@@H](C)C(=O)N[C@@H](CC(C)C)C(=O)N[C@H](C(=O)N[C@@H](CO)C(=O)N[C@@H](Cc1c[nH]c2ccccc12)C(=O)N[C@H](C(=O)N[C@@H](CCCCN)C(=O)N[C@@H](CCCNC(=N)N)C(=O)N[C@@H](CCCCN)C(=O)N[C@@H](CCCNC(=N)N)C(=O)N[C@@H](CCC(N)=O)C(=O)N[C@@H](CCC(N)=O)C(N)=O)[C@@H](C)CC)[C@@H](C)CC)[C@@H](C)O)[C@@H](C)O)C(C)C)C(C)C [Melittin]	–	–	–	–	–	–	–	–	–	–	6.25 (≈ 2.2 µM)	6.25 (≈ 2.2 µM)	6.25 (≈ 2.2 µM)	6.25 (≈ 2.2 µM)	6.25 (≈ 2.2 µM)	25.00 (≈ 8.78 µM)	50.00 (≈ 17.6 µM)	200.00 (≈ 70.3 µM)	6.25 (≈ 2.2 µM)	–
CC[C@H](C)[C@H](NC(=O)[C@H](CCCCN)NC(=O)[C@H](CCSC)NC(=O)[C@H](C)NC(=O)[C@H](CC(C)C)NC(=O)[C@H](Cc1c[nH]cn1)NC(=O)[C@H](CCCNC(=N)N)NC(=O)[C@H](CCCCN)NC(=O)[C@H](CCCCN)NC(=O)[C@H](CCCCN)NC(=O)[C@H](CCSC)NC(=O)[C@H](CC(C)C)NC(=O)[C@H](CC(C)C)NC(=O)[C@H](CC(=O)O)NC(=O)[C@H](CC(C)C)NC(=O)[C@H](Cc1c[nH]cn1)NC(=O)[C@H](CCCCN)NC(=O)[C@H](CCCCN)NC(=O)[C@@H](NC(=O)[C@H](CCCNC(=N)N)NC(=O)[C@@H]1CCCN1C(=O)[C@H](Cc1c[nH]cn1)NC(=O)[C@H](C)N)[C@@H](C)CC)C(=O)N[C@@H](C)C(=O)N[C@@H](C)C(=O)N1CCC[C@H]1C(=O)O [chCCL27a-26] (H-AHPRIKKHLDLLMKKKRHLAMKIAAP-OH; N-terminus and C-terminus assumed)	25.00 (≈ 8.21 µM)	25.00 (≈ 8.21 µM)	25.00 (≈ 8.21 µM)	>50.00	>50.00	25.00 (≈ 8.21 µM)	25.00 (≈ 8.21 µM)	25.00 (≈ 8.21 µM)	12.50 (≈ 4.1 µM)	25.00 (≈ 8.21 µM)	–	–	–	–	–	–	–	–	–	fluorescence trends similar to the trends in E. coli cells treated with lcCCL28-25

Now from value to compound, other results behind:

MIC (P. aeruginosa FRD1) [µg/mL]	MIC [2] [µg/mL]	MIC [3] [µg/mL]	MIC [4] [µg/mL]	MIC [5] [µg/mL]	MIC [6] [µg/mL]	MIC [7] [µg/mL]	MIC [8] [µg/mL]	MIC [9] [µg/mL]	MIC [10] [µg/mL]	Compound	MIC in 6 μM NH4Cl ([1]; 6 μM NH4Cl) [µg/mL]	MIC in 1 mM MgCl2 ([1]; 1 mM MgCl2) [µg/mL]	MIC in 2.5 mM CaCl2 ([1]; 2.5 mM CaCl2) [µg/mL]	MIC in 4.5 mM KCl ([1]; 4.5 mM KCl) [µg/mL]	MIC in 150 mM NaCl ([1]; 150 mM NaCl) [µg/mL]	MIC in MS at concn 10% ([1]; 10% mouse serum) [µg/mL]	MIC in MS at concn 20% ([1]; 20% mouse serum) [µg/mL]	MIC in MS at concn 40% ([1]; 40% mouse serum) [µg/mL]	MIC in Control ([1]; control, bacteria treated with peptide only) [µg/mL]	SYTOX green fluorescence intensity (E. coli ATCC 25922)
25.00 (≈ 9 µM)	25.00 (≈ 9 µM)	25.00 (≈ 9 µM)	>50.00	>50.00	25.00 (≈ 9 µM)	25.00 (≈ 9 µM)	25.00 (≈ 9 µM)	25.00 (≈ 9 µM)	25.00 (≈ 9 µM)	CSCC[C@H](NC(=O)[C@H](CCCNC(=N)N)NC(=O)[C@H](CCCCN)NC(=O)[C@H](CCSC)NC(=O)[C@H](CC(C)C)NC(=O)[C@H](CCCCN)NC(=O)[C@H](CCC(N)=O)NC(=O)[C@H](CC(C)C)NC(=O)[C@H](Cc1ccccc1)NC(=O)[C@H](CCC(N)=O)NC(=O)[C@H](CCC(=O)O)NC(=O)[C@H](CCSC)NC(=O)[C@H](CCCCN)NC(=O)[C@@H]1CCCN1C(=O)[C@@H](NC(=O)[C@H](C)N)[C@@H](C)O)C(=O)N[C@@H](C)C(=O)N[C@@H](CCCNC(=N)N)C(=O)N[C@@H](CC(C)C)C(=O)N[C@@H](CCCCN)C(=O)N[C@@H](C)C(=O)N[C@@H](CO)C(=O)N[C@@H](C)C(=O)N[C@H](C(=O)O)C(C)C [drCCL27b-24] (H-ATPKMEQFLQKLMKRMARLKASAV-OH; N-terminus and C-terminus assumed)	–	–	–	–	–	–	–	–	–	fluorescence trends similar to the trends in E. coli cells treated with lcCCL28-25
25.00 (≈ 8.46 µM)	25.00 (≈ 8.46 µM)	>50.00	>50.00	>50.00	25.00 (≈ 8.46 µM)	50.00 (≈ 16.9 µM)	50.00 (≈ 16.9 µM)	25.00 (≈ 8.46 µM)	25.00 (≈ 8.46 µM)	CC[C@H](C)[C@H](NC(=O)[C@H](C)NC(=O)[C@H](CCCCN)NC(=O)[C@H](CCSC)NC(=O)[C@H](CCCCN)NC(=O)[C@H](CC(C)C)NC(=O)[C@@H]1CCCN1C(=O)[C@H](C)N)C(=O)N[C@@H](CC(C)C)C(=O)N[C@@H](CCC(=O)O)C(=O)N[C@H](C(=O)N[C@H](C(=O)N[C@@H](Cc1c[nH]cn1)C(=O)N[C@@H](CCCNC(=N)N)C(=O)N[C@@H](CCCNC(=N)N)C(=O)N[C@@H](CCSC)C(=O)N[C@@H](CCCCN)C(=O)N[C@@H](CCC(N)=O)C(=O)N[C@@H](CC(N)=O)C(=O)N[C@@H](CCCCN)C(=O)N[C@@H](CCSC)C(=O)N[C@@H](CCCCN)C(=O)N[C@@H](C)C(=O)N[C@@H](C)C(=O)N[C@@H](Cc1ccccc1)C(=O)O)C(C)C)[C@@H](C)CC [smCCL27b-25] (H-APLKMKAILEIVHRRMKQNKMKAAF-OH; N-terminus and C-terminus assumed)	–	–	–	–	–	–	–	–	–	increased rapidly within 20 min
25.00 (≈ 6.69 µM)	12.5 (≈ 3.34 µM)	12.50 (≈ 3.34 µM)	25.00 (≈ 6.69 µM)	25.00 (≈ 6.69 µM)	12.50 (≈ 3.34 µM)	25.00 (≈ 6.69 µM)	12.50 (≈ 3.34 µM)	12.50 (≈ 3.34 µM)	25.00 (≈ 6.69 µM)	CC[C@H](C)[C@H](NC(=O)[C@H](CC(=O)O)NC(=O)[C@H](CCCCN)NC(=O)[C@H](Cc1ccccc1)NC(=O)[C@@H](NC(=O)[C@@H](NC(=O)[C@H](CCC(N)=O)NC(=O)[C@H](CC(=O)O)NC(=O)[C@@H](N)C(C)C)[C@@H](C)O)C(C)C)C(=O)N[C@@H](Cc1c[nH]c2ccccc12)C(=O)N[C@@H](Cc1c[nH]c2ccccc12)C(=O)N[C@@H](CCCNC(=N)N)C(=O)N[C@@H](CCSC)C(=O)N[C@@H](CCCCN)C(=O)N[C@@H](CCC(N)=O)C(=O)N[C@@H](Cc1c[nH]c2ccccc12)C(=O)N[C@@H](CCCCN)C(=O)N[C@@H](CCC(N)=O)C(=O)N[C@@H](CCCNC(=N)N)C(=O)N[C@H](C(=O)N[C@@H](CCCCN)C(=O)N[C@@H](CCCCN)C(=O)N[C@@H](CCCNC(=N)N)C(=O)N[C@@H](C)C(=O)N[C@@H](C)C(=O)N[C@@H](CCCCN)C(=O)N[C@@H](Cc1ccc(O)cc1)C(=O)N[C@@H](CC(N)=O)C(=O)N[C@H](C(=O)O)C(C)C)C(C)C [trCCL28-29] (H-VDQTVFKDIWWRMKQWKQRVKKRAAKYNV-OH; N-terminus and C-terminus assumed)	–	–	–	–	–	–	–	–	–	increased rapidly within 20 min
